Test results: ChEMBL document CHEMBL1135216, “New 2-(1-adamantylcarbonyl)pyridine and 1-acetyladamantane thiosemicarbazones-thiocarbonohydrazones: cell growth inhibitory, antiviral and antimicrobial activity evaluation” (Bioorg Med Chem Lett, 2002)
≈ marks a conversion by molar mass, not a printed value.

Legend:
CCRF-CEM [1] = experiment: Tested for the inhibitory concentration against cell growth of human leukemic cell line CCRF-CEM; type: functional
CCRF-CEM [2] = experiment: Tested for the concentration required to reduce the viability of leukemia cells by 50% against cell growth of T cell leukemia cell line CCRF-CEM using MTT assay; type: functional; conditions: Homo sapiens
CCRF-CEM [3] = experiment: Tested for the inhibitory concentration against cell growth of Tcell leukemic cell line CCRF-CEM using MTT assay; type: functional; conditions: Homo sapiens
E6SM [4] = experiment: Tested for antiviral activity against VSV-virus in human embryonic skin muscle fibroblasts; type: functional; conditions: Muscle tissue
E6SM [5] = experiment: Tested for antiviral activity against herpes simplex virus type 1(KOS) in E6SM cell line(human embryonic skin-muscle fibroblasts); type: functional
E6SM [6] = experiment: Tested for antiviral activity against thymidine kinase-deficient (TK-HSV-2G) virus in E6SM cell line(human embryonic skin-muscle fibroblasts); type: functional
E6SM [7] = experiment: Tested for antiviral activity against vaccinia virus in human embryonic skin muscle fibroblast; type: functional; conditions: Muscle tissue
HeLa [8] = experiment: The compound was tested for antiviral activity against VSV-virus in human epithelial cells; type: functional
E6SM [9] = experiment: Tested for cytotoxic activity in human embryonic skin muscle fibroblast (E6SM); type: functional; conditions: Muscle tissue
E6SM [10] = experiment: Antiviral activity against thymidine kinase-deficient (TK-HSV-1)virus in E6SM cell line(human embryonic skin-muscle fibroblasts); type: functional
Escherichia coli = experiment: Tested for the antimicrobial activity against Escherichia coli ATCC 25922; type: functional
HEL [11] = experiment: Tested for cytotoxic activity in human embryonic lung fibroblast (HEL); type: functional
HEL [12] = experiment: Tested for antiviral activity against human cytomegalovirus (AD-169) in human embryonic lung fibroblasts; type: functional
HEL [13] = experiment: Tested for antiviral activity against thymidine kinase deficient Varicella zoster virus in human embryonic lung fibroblasts; type: functional
HEL [14] = experiment: Tested for antiviral activity against thymidine kinase wild type Varicella zoster virus in human embryonic lung fibroblast; type: functional
HeLa [15] = experiment: Tested for antiviral activity against coxsackie-B4 virus in human epithelial cell line; type: functional
HL-60 [16] = experiment: Tested for the inhibitory concentration against cell growth of human leukemic cell line HL60; type: functional
HL-60 [17] = experiment: Tested for the concentration required to reduce the viability of leukemia cells by 50% against cell growth of HL60 acute myeloid leukemia using MTT assay; type: functional; conditions: Homo sapiens, read-out: LC50 (the source's name)
HL-60 [18] = experiment: Tested for the inhibitory concentration against cell growth of HL60 acute myeloid leukemia using MTT assay; type: functional; conditions: Homo sapiens
HeLa [19] = experiment: Tested for cytotoxic activity in human epithelial cell line (HeLa); type: functional
HuT78 [20] = experiment: Tested for the inhibitory concentration against cell growth of human leukemic cell line HuT78; type: functional
HuT78 [21] = experiment: Tested for the concentration required to reduce the viability of leukemia cells by 50% against cell growth of HuT78 T lymphoma using MTT assay; type: functional; conditions: Homo sapiens
HuT78 [22] = experiment: Tested for the inhibitory concentration against cell growth of HuT78 T lymphoma using MTT assay; type: functional; conditions: Homo sapiens
K562 [23] = experiment: Tested for the concentration required to reduce the viability of leukemia cells by 50% against cell growth of K562 chronic myeloid leukemia using MTT assay; type: functional; conditions: Homo sapiens, read-out: LC50 (the source's name)
K562 [24] = experiment: Tested for the inhibitory concentration against cell growth of K562 chronic myeloid leukemia using MTT assay; type: functional; conditions: Homo sapiens
K562 [25] = experiment: Tested for the inhibitory concentration against cell growth of human leukemic cell line K562; type: functional
Klebsiella pneumoniae = experiment: Tested for the antimicrobial activity against Klebsiella pneumoniae ATCC 13883; type: functional
MOLT-4 [26] = experiment: Tested for the inhibitory concentration against cell growth of human leukemic cell line MOLT-4; type: functional
MT4 [27] = experiment: Tested for effective concentration required to protect MT-4 cells against the cytopathicity of HIV-1(IIIB); type: functional; conditions: Homo sapiens, read-out: LC50 (the source's name)
MT4 [28] = experiment: Tested for effective concentration required to protect MT-4 cells against the cytopathicity of HIV-2(ROD); type: functional, cell-based; conditions: Homo sapiens
MOLT-4 [29] = experiment: Tested for the concentration required to reduce the viability of leukemia cells by 50% against cell growth of T cell leukemia cell line MOLT-4 using MTT assay; type: functional; conditions: Homo sapiens
MOLT-4 [30] = experiment: Tested for the inhibitory concentration against cell growth of Tcell leukemic cell line MOLT-4 using MTT assay; type: functional; conditions: Homo sapiens
RPMI-8226 [31] = experiment: Tested for the inhibitory concentration against cell growth of human leukemic cell line RPMI8226; type: functional
RPMI-8226 [32] = experiment: Tested for the concentration required to reduce the viability of leukemia cells by 50% against cell growth of RPMI8226 multiple myeloma using MTT assay; type: functional; conditions: Homo sapiens, read-out: LC50 (the source's name)
RPMI-8226 [33] = experiment: Tested for the inhibitory concentration against cell growth of […] multiple myeloma using MTT assay; type: functional; conditions: Homo sapiens
Staphylococcus aureus = experiment: Tested for the antimicrobial activity against Staphylococcus aureus ATCC 6538; type: functional
[34] = system: Staphylococcus epidermidis; experiment: Tested for the antimicrobial activity against Staphylococcus epidermidis ATCC 12228; type: functional
Staphylococcus hominis = experiment: Tested for the antimicrobial activity against Staphylococcus hominis ATCC 27844; type: functional
Vero [35] = experiment: Tested for cytotoxic activity in African green monkey kidney cells (Vero); type: functional; conditions: Chlorocebus sabaeus
Vero [36] = experiment: Tested for antiviral activity against Punta toro virus in African green monkey kidney cell (Vero); type: functional; conditions: Chlorocebus sabaeus
Vero [37] = experiment: Tested for antiviral activity against Reo-1 virus in African green monkey kidney cell (Vero); type: functional; conditions: Chlorocebus sabaeus
Vero [38] = experiment: Tested for antiviral activity against Sindbis virus in African green monkey kidney cell (Vero); type: functional; conditions: Chlorocebus sabaeus
Vero [39] = experiment: Tested for antiviral activity against coxsackie B-4 virus in African green monkey kidney cell (Vero); type: functional; conditions: Chlorocebus sabaeus
Vero [40] = experiment: Tested for antiviral activity against parainfluenza virus in african green monkey kidney cell (Vero); type: functional; conditions: Chlorocebus sabaeus
MT4 [41] = experiment: Tested for cytotoxic concentration required to reduce the viability of MT-4 cells by 50%; type: functional, cell-based; conditions: Homo sapiens, read-out: EC50 (the source's name)

Q: How did the GI50 (CCRF-CEM [1]) turn out when `C/C(=N/N=C(/S)N/N=C(\S)c1ccc(Cl)cc1Cl)C12CC3CC(CC(C3)C1)C2` was run?
A: The GI50 was 5.7 µM.

Q: And the TGI (CCRF-CEM [2])?
A: The TGI was 100 µM.

Q: What about the TGI (CCRF-CEM [3]) of the same compound?
A: Its TGI is 100 µM.

Q: What about the MIC (E6SM [4]) of the same compound?
A: The MIC was greater than 16 µg/mL.

Q: And the MIC (E6SM [5])?
A: Its MIC is greater than 16 µg/mL.

Q: And the MIC (E6SM [6])?
A: Its MIC is 9.6 µg/mL (≈ 21.1 µM).

Q: And the MIC (E6SM [7])?
A: Its MIC is greater than 16 µg/mL.

Q: And the MIC (HeLa [8])?
A: The MIC was greater than 3.2 µg/mL.

Q: And the MCC (E6SM [9])?
A: The MCC was 80 µg/mL.

Q: And the MIC (E6SM [10])?
A: Its MIC is 9.6 µg/mL (≈ 21.1 µM).

Q: And the MIC (Escherichia coli)?
A: Its MIC is greater than 2130 µg/mL.

Q: What about the MCC (HEL [11]) of the same compound?
A: Its MCC is 5 µg/mL.

Q: And the MIC (HEL [12])?
A: The MIC was greater than 2 µg/mL.

Q: What about the MIC (HEL [13]) of the same compound?
A: The MIC was greater than 2 µg/mL.

Q: What about the MIC (HEL [14]) of the same compound?
A: The MIC was greater than 2 µg/mL.

Q: And the MIC (HeLa [15])?
A: The MIC was greater than 3.2 µg/mL.

Q: And the GI50 (HL-60 [16])?
A: The GI50 was 2.4 µM.

Q: And the CC50 (HL-60 [17])?
A: The CC50 was 10 µM.

Q: What about the TGI (HL-60 [18]) of the same compound?
A: The TGI was 6.2 µM.

Q: What about the MCC (HeLa [19]) of the same compound?
A: The MCC was 16 µg/mL.

Q: What about the GI50 (HuT78 [20]) of the same compound?
A: The GI50 was 8.1 µM.

Q: And the TGI (HuT78 [21])?
A: The TGI was 100 µM.

Q: And the TGI (HuT78 [22])?
A: Its TGI is 100 µM.

Q: And the CC50 (K562 [23])?
A: Its CC50 is 100 µM.

Q: And the TGI (K562 [24])?
A: The TGI was 100 µM.

Q: And the GI50 (K562 [25])?
A: Its GI50 is 24.7 µM.

Q: And the MIC (Klebsiella pneumoniae)?
A: The MIC was greater than 2130 µg/mL.

Q: What about the GI50 (MOLT-4 [26]) of the same compound?
A: Its GI50 is 32.4 µM.

Q: What about the EC50 (MT4 [27]) of the same compound?
A: The EC50 was greater than 2 µM.

Q: And the EC50 (MT4 [28])?
A: Its EC50 is greater than 2 µM.

Q: And the TGI (MOLT-4 [29])?
A: Its TGI is 100 µM.

Q: What about the TGI (MOLT-4 [30]) of the same compound?
A: The TGI was 100 µM.

Q: And the GI50 (RPMI-8226 [31])?
A: The GI50 was 3.6 µM.

Q: What about the CC50 (RPMI-8226 [32]) of the same compound?
A: The CC50 was 100 µM.

Q: And the TGI (RPMI-8226 [33])?
A: The TGI was 29.3 µM.

Q: What about the MIC (Staphylococcus aureus) of the same compound?
A: The MIC was 133 µg/mL (≈ 292 µM).

Q: What about the MIC [34] of the same compound?
A: The MIC was 133 µg/mL (≈ 292 µM).

Q: What about the MIC (Staphylococcus hominis) of the same compound?
A: The MIC was 133 µg/mL (≈ 292 µM).

Q: And the MCC (Vero [35])?
A: Its MCC is 16 µg/mL.

Q: And the MIC (Vero [36])?
A: The MIC was greater than 3.2 µg/mL.

Q: And the MIC (Vero [37])?
A: Its MIC is greater than 3.2 µg/mL.

Q: What about the MIC (Vero [38]) of the same compound?
A: The MIC was greater than 3.2 µg/mL.

Q: And the MIC (Vero [39])?
A: Its MIC is greater than 3.2 µg/mL.

Q: What about the MIC (Vero [40]) of the same compound?
A: The MIC was greater than 3.2 µg/mL.

Q: What about the CC50 (MT4 [41]) of the same compound?
A: The CC50 was 2.4 µM.
